{
  "source": "PubChem BioAssay AID1966",
  "about": "(Sanford-Burnham Center for Chemical Genomics, 2009)",
  "target": "Beta-galactosidase (Escherichia coli) (UniProt Q8VNN2)",
  "sequence (Q8VNN2 whole entry, looked up)": "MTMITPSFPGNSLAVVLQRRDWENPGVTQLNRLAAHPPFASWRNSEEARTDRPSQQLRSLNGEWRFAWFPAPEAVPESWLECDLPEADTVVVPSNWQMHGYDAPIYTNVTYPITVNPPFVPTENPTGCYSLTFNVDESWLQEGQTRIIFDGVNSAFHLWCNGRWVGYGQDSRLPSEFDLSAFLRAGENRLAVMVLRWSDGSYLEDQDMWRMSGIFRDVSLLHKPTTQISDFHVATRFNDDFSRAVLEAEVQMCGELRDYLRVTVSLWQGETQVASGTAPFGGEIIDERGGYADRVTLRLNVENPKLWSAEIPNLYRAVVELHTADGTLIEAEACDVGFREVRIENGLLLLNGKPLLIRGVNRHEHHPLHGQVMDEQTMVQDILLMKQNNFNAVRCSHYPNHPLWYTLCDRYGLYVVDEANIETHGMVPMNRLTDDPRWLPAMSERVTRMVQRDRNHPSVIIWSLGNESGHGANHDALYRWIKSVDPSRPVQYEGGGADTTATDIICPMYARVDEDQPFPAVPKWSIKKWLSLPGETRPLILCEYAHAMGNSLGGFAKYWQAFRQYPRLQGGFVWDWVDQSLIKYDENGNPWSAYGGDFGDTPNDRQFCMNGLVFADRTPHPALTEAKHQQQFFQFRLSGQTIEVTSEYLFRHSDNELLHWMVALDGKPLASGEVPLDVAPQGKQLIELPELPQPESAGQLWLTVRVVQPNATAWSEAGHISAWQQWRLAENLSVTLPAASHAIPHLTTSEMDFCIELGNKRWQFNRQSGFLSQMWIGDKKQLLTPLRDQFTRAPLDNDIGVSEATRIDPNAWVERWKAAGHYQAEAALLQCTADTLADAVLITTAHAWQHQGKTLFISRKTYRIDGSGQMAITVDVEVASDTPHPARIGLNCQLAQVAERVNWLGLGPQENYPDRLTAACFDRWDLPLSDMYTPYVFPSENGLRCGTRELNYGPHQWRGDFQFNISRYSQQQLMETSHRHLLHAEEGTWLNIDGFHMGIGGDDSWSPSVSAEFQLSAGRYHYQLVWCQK",
  "assay": "inhibitors of purified bacterial beta-gal – biochemical, counter-screen, dose response (AID 1966)",
  "conditions": "purified E. coli beta-galactosidase enzyme activity",
  "note": "Activity calls are given as the source filed them. No rule for the calls is given here.",
  "data": [
    {"compound": "CCNC(=O)C1CCCN1C(=O)C(CCCN=C(N)N)NC(=O)C(CC(C)C)NC(=O)C(Cc1cn(Cc2ccccc2)cn1)NC(=O)C(Cc1ccc(O)cc1)NC(=O)C(CO)NC(=O)C(Cc1c[nH]c2ccccc12)NC(=O)C(Cc1cnc[nH]1)NC(=O)C1CCC(=O)N1", "note": "(stereo unspecified)", "values": [
      {"measurement": "IC50", "value": "> 31.5 µM (inactive)"}
    ]}
  ]
}
